Data published in patent US8802661B2, “C-28 amides of modified C-3 betulinic acid derivatives as HIV maturation inhibitors” (priority 2010, dated 2014).

System: recombinant NL4-3 virus (Renilla luciferase in nef, Gag P373S)
Experiment: HIV Cell Culture Assay (luciferase reporter virus in MT-2 cells)
Format: cell-based
Conditions: NL43, read-out: EC50 Group
Procedure: MT-2 cells and 293T cells were obtained from the NIH AIDS Research and Reference Reagent Program. MT-2 cells were propagated in RPMI 1640 media supplemented with 10% heat inactivated fetal bovine serum, […]. The 293T cells were propagated in DMEM media supplemented with 10% heat inactivated fetal bovine serum (FBS), 100 units/ml penicillin G and 100 μg/ml streptomycin. The proviral DNA clone of NL4-3 was obtained from the NIH AIDS Research and Reference Reagent Program. A recombinant NL4-3 virus, in which a section of the nef gene from NL4-3 was replaced with the Renilla luciferase gene, was used as a reference virus. In addition, residue Gag P373 was converted to P373S. Briefly, the recombinant virus was prepared by transfection of the altered proviral clone of NL4-3. Transfections were performed in 293T cells using LipofectAMINE PLUS from Invitrogen (Carlsbad, Calif.), according to manufacturer's instruction. The virus was titered in MT-2 cells using luciferase enzyme activity as a marker. Luciferase was quantitated using the Dual Luciferase kit from Promega (Madison, Wis.), with modifications to the manufacturer's protocol. The diluted Passive Lysis solution was pre-mixed with the re-suspended Luciferase Assay Reagent and the re-suspended Stop & Glo Substrate (2:1:1 ratio). Fifty (50) μL of the mixture was added to each aspirated well on assay plates and luciferase activity was measured immediately on a Wallac TriLux (Perkin-Elmer). Antiviral activities of inhibitors toward the recombinant virus were quantified by measuring luciferase activity in cells infected for 4-5 days with NLRluc recombinants in the presence serial dilutions of the inhibitor. Table 1 is the key for the data in Table 2.

| SMILES | EC50 |
| --- | --- |
| C=C(C)[C@@H]1CC[C@]2(C(=O)NCc3ccncc3)CC[C@]3(C)[C@H](CC[C@@H]4[C@@]5(C)CC=C(c6ccc(C(=O)O)cc6)C(C)(C)[C@@H]5CC[C@]43C)[C@@H]12 [Example 28, 4-((1R,3aS,5aR,5bR,7aR,11aS,11bR,13aR,13bR)-5a,5b,8,8,11a-pentamethyl-1-(prop-1-en-2-yl)-3a-(pyridin-4-ylmethylcarbamoyl)-2,3,3a,4,5,5a,5b,6,7,7a,8,11,11a,11b,12,13,13a,13b-octadecahydro-1H-cyclopenta[a]chrysen-9-yl)benzoic acid] | < 100 nM |
| C=C(C)[C@@H]1CC[C@]2(C(=O)NCc3cccnc3)CC[C@]3(C)[C@H](CC[C@@H]4[C@@]5(C)CC=C(c6ccc(C(=O)O)cc6)C(C)(C)[C@@H]5CC[C@]43C)[C@@H]12 [Example 29, 4-((1R,3aS,5aR,5bR,7aR,11aS,11bR,13aR,13bR)-5a,5b,8,8,11a-pentamethyl-1-(prop-1-en-2-yl)-3a-(pyridin-3-ylmethylcarbamoyl)-2,3,3a,4,5,5a,5b,6,7,7a,8,11,11a,11b,12,13,13a,13b-octadecahydro-1H-cyclopenta[a]chrysen-9-yl)benzoic acid] | < 100 nM |
| C=C(C)[C@@H]1CC[C@]2(C(=O)NCCNC(C)=O)CC[C@]3(C)[C@H](CC[C@@H]4[C@@]5(C)CC=C(c6ccc(C(=O)O)cc6)C(C)(C)[C@@H]5CC[C@]43C)[C@@H]12 [Example 30, 4-((1R,3aS,5aR,5bR,7aR,11aS,11bR,13aR,13bR)-3a-(2-acetamidoethylcarbamoyl)-5a,5b,8,8,11a-pentamethyl-1-(prop-1-en-2-yl)-2,3,3a,4,5,5a,5b,6,7,7a,8,11,11a,11b,12,13,13a,13b-octadecahydro-1H-cyclopenta[a]chrysen-9-yl)benzoic acid] | < 100 nM |
| C=C(C)[C@@H]1CC[C@]2(C(=O)N(C)CCN(C)C)CC[C@]3(C)[C@H](CC[C@@H]4[C@@]5(C)CC=C(c6ccc(C(=O)O)cc6)C(C)(C)[C@@H]5CC[C@]43C)[C@@H]12 [Example 31, 4-((1R,3aS,5aR,5bR,7aR,11aS,11bR,13aR,13bR)-3a-((2-(dimethylamino)ethyl)(methyl)carbamoyl)-5a,5b,8,8,11a-pentamethyl-1-(prop-1-en-2-yl)-2,3,3a,4,5,5a,5b,6,7,7a,8,11,11a,11b,12,13,13a,13b-octadecahydro-1H-cyclopenta[a]chrysen-9-yl)benzoic acid] | < 100 nM |
| C=C(C)[C@@H]1CC[C@]2(C(=O)NCCCN3CCOCC3)CC[C@]3(C)[C@H](CC[C@@H]4[C@@]5(C)CC=C(c6ccc(C(=O)O)cc6)C(C)(C)[C@@H]5CC[C@]43C)[C@@H]12 [Example 32, 4-((1R,3aS,5aR,5bR,7aR,11aS,11bR,13aR,13bR)-5a,5b,8,8,11a-pentamethyl-3a-(3-morpholinopropylcarbamoyl)-1-(prop-1-en-2-yl)-2,3,3a,4,5,5a,5b,6,7,7a,8,11,11a,11b,12,13,13a,13b-octadecahydro-1H-cyclopenta[a]chrysen-9-yl)benzoic acid] | < 100 nM |
| C=C(C)[C@@H]1CC[C@]2(C(=O)NCCN3CCCCC3)CC[C@]3(C)[C@H](CC[C@@H]4[C@@]5(C)CC=C(c6ccc(C(=O)O)cc6)C(C)(C)[C@@H]5CC[C@]43C)[C@@H]12 [Example 33, 4-((1R,3aS,5aR,5bR,7aR,11aS,11bR,13aR,13bR)-5a,5b,8,8,11a-pentamethyl-3a-(2-(piperidin-1-yl)ethylcarbamoyl)-1-(prop-1-en-2-yl)-2,3,3a,4,5,5a,5b,6,7,7a,8,11,11a,11b,12,13,13a,13b-octadecahydro-1H-cyclopenta[a]chrysen-9-yl)benzoic acid] | < 100 nM |
| C=C(C)[C@@H]1CC[C@]2(C(=O)NCC(N)=O)CC[C@]3(C)[C@H](CC[C@@H]4[C@@]5(C)CC=C(c6ccc(C(=O)O)cc6)C(C)(C)[C@@H]5CC[C@]43C)[C@@H]12 [Example 34, 4-((1R,3aS,5aR,5bR,7aR,11aS,11bR,13aR,13bR)-3a-(2-amino-2-oxoethylcarbamoyl)-5a,5b,8,8,11a-pentamethyl-1-(prop-1-en-2-yl)-2,3,3a,4,5,5a,5b,6,7,7a,8,11,11a,11b,12,13,13a,13b-octadecahydro-1H-cyclopenta[a]chrysen-9-yl)benzoic acid] | < 100 nM |
| C=C(C)[C@@H]1CC[C@]2(C(=O)NCC(c3cccnc3)N(C)C)CC[C@]3(C)[C@H](CC[C@@H]4[C@@]5(C)CC=C(c6ccc(C(=O)O)cc6)C(C)(C)[C@@H]5CC[C@]43C)[C@@H]12 (stereo partly drawn) [Example 35, 4-((1R,3aS,5aR,5bR,7aR,11aS,11bR,13aR,13bR)-3a-(2-(dimethylamino)-2-(pyridin-3-yl)ethylcarbamoyl)-5a,5b,8,8,11a-pentamethyl-1-(prop-1-en-2-yl)-2,3,3a,4,5,5a,5b,6,7,7a,8,11,11a,11b,12,13,13a,13b-octadecahydro-1H-cyclopenta[a]chrysen-9-yl)benzoic acid] | < 100 nM |
| C=C(C)[C@@H]1CC[C@]2(C(=O)NCCN3CCN(C)CC3)CC[C@]3(C)[C@H](CC[C@@H]4[C@@]5(C)CC=C(c6ccc(C(=O)O)cc6)C(C)(C)[C@@H]5CC[C@]43C)[C@@H]12 [Example 36, 4-((1R,3aS,5aR,5bR,7aR,11aS,11bR,13aR,13bR)-5a,5b,8,8,11a-pentamethyl-3a-(2-(4-methylpiperazin-1-yl)ethylcarbamoyl)-1-(prop-1-en-2-yl)-2,3,3a,4,5,5a,5b,6,7,7a,8,11,11a,11b,12,13,13a,13b-octadecahydro-1H-cyclopenta[a]chrysen-9-yl)benzoic acid] | < 100 nM |
| C=C(C)[C@@H]1CC[C@]2(C(=O)NCCN3CCN(C(=O)OC(C)(C)C)CC3)CC[C@]3(C)[C@H](CC[C@@H]4[C@@]5(C)CC=C(c6ccc(C(=O)O)cc6)C(C)(C)[C@@H]5CC[C@]43C)[C@@H]12 [Example 37, 4-((1R,3aS,5aR,5bR,7aR,11aS,11bR,13aR,13bR)-3a-(2-(4-(tert-butoxycarbonyl)piperazin-1-yl)ethylcarbamoyl)-5a,5b,8,8,11a-pentamethyl-1-(prop-1-en-2-yl)-2,3,3a,4,5,5a,5b,6,7,7a,8,11,11a,11b,12,13,13a,13b-octadecahydro-1H-cyclopenta[a]chrysen-9-yl)benzoic acid] | < 100 nM |
| C=C(C)[C@@H]1CC[C@]2(C(=O)NCC(C)(C)N)CC[C@]3(C)[C@H](CC[C@@H]4[C@@]5(C)CC=C(c6ccc(C(=O)O)cc6)C(C)(C)[C@@H]5CC[C@]43C)[C@@H]12 [Example 38, 4-((1R,3aS,5aR,5bR,7aR,11aS,11bR,13aR,13bR)-3a-(2-amino-2-methylpropylcarbamoyl)-5a,5b,8,8,11a-pentamethyl-1-(prop-1-en-2-yl)-2,3,3a,4,5,5a,5b,6,7,7a,8,11,11a,11b,12,13,13a,13b-octadecahydro-1H-cyclopenta[a]chrysen-9-yl)benzoic acid] | < 100 nM |
| C=C(C)[C@@H]1CC[C@]2(C(=O)NCC3CCCN3CC)CC[C@]3(C)[C@H](CC[C@@H]4[C@@]5(C)CC=C(c6ccc(C(=O)O)cc6)C(C)(C)[C@@H]5CC[C@]43C)[C@@H]12 (stereo partly drawn) [Example 39, 4-((1R,3aS,5aR,5bR,7aR,11aS,11bR,13aR,13bR)-3a-((1-ethylpyrrolidin-2-yl)methylcarbamoyl)-5a,5b,8,8,11a-pentamethyl-1-(prop-1-en-2-yl)-2,3,3a,4,5,5a,5b,6,7,7a,8,11,11a,11b,12,13,13a,13b-octadecahydro-1H-cyclopenta[a]chrysen-9-yl)benzoic acid] | < 100 nM |
| C=C(C)[C@@H]1CC[C@]2(C(=O)NCc3nc4ccccc4[nH]3)CC[C@]3(C)[C@H](CC[C@@H]4[C@@]5(C)CC=C(c6ccc(C(=O)O)cc6)C(C)(C)[C@@H]5CC[C@]43C)[C@@H]12 [Example 40, 4-((1R,3aS,5aR,5bR,7aR,11aS,11bR,13aR,13bR)-3a-((1H-benzo[d]imidazol-2-yl)methylcarbamoyl)-5a,5b,8,8,11a-pentamethyl-1-(prop-1-en-2-yl)-2,3,3a,4,5,5a,5b,6,7,7a,8,11,11a,11b,12,13,13a,13b-octadecahydro-1H-cyclopenta[a]chrysen-9-yl)benzoic acid] | < 100 nM |
| C=C(C)[C@@H]1CC[C@]2(C(=O)NCc3nccs3)CC[C@]3(C)[C@H](CC[C@@H]4[C@@]5(C)CC=C(c6ccc(C(=O)O)cc6)C(C)(C)[C@@H]5CC[C@]43C)[C@@H]12 [Example 41, 4-((1R,3aS,5aR,5bR,7aR,11aS,11bR,13aR,13bR)-5a,5b,8,8,11a-pentamethyl-1-(prop-1-en-2-yl)-3a-(thiazol-2-ylmethylcarbamoyl)-2,3,3a,4,5,5a,5b,6,7,7a,8,11,11a,11b,12,13,13a,13b-octadecahydro-1H-cyclopenta[a]chrysen-9-yl)benzoic acid] | < 100 nM |
